Test results published in patent publication US11214803B2, “Modulators of YAP1 expression” (Ionis Pharmaceuticals, Inc., priority 2019, dated 2022).
Strand notation (5' to 3'): a small letter for the sugar, then the base; units joined by * are phosphorothioate-linked, units joined directly phosphodiester-linked; [ ] holds rarer units or linkages, { } end groups; capitals alone tell only the bases. e = 2'-O-(2-methoxyethyl) (MOE); k = constrained ethyl (cEt); [5mC] = 5-methylcytosine; d = 2'-deoxy (DNA); m = 2'-O-methyl

Test system: Yap1 mRNA
Test: Antisense inhibition of human Yap1 in SNU-449 cells by modified oligonucleotides, single dose (Example 5, RTS36584)
Assay type: cell-based
Details: Table 39; SNU-449 cells, 10,000 cells per well, free uptake, 2,000 nM oligonucleotide, approx. 48 hours; RTS36584; normalized to RIBOGREEN; Yap1 mRNA relative to untreated control
Method in brief: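 SNU-449 cells (10,000/well) took up 2,000 nM oligonucleotide by free uptake for about 48 h. Yap1 mRNA was measured by qRT-PCR with primer probe set RTS36584 and normalised to RIBOGREEN total RNA. Values are % of untreated control; asterisked oligos target the amplicon region.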

Substance | YAP1 (% UTC)
1198421 (kT*dT*dA*dT*dA*dT*dG*dG*dT*dT*dT*kT*eG*kT*eG*kT; antisense) [Compound 1198421] | 36 % UTC

Same assay, conditions: Table 40 (separate experiment); SNU-449 cells, 10,000 cells per well, free uptake, 2,000 nM oligonucleotide, approx. 48 hours; RTS36584; normalized to RIBOGREEN; Yap1 mRNA relative to untreated control

Substance | YAP1 (% UTC)
1198802 (antisense kA*eG*kA*d[5mC]*dT*dA*dA*dG*dT*dA*dA*dG*eG*eT*kT*kT) [Compound 1198802] | 83 % UTC
1198741 (kT*eT*kA*d[5mC]*dA*dT*dT*dA*dG*dG*dA*dA*e[5mC]*eA*kA*kG; antisense) [Compound 1198741] | 60 % UTC
1198761 (kT*eT*kT*dA*dG*dG*dA*dT*dG*d[5mC]*dA*dT*eG*eG*kT*kT; antisense) [Compound 1198761] | 42 % UTC
1198749 (kT*eT*kA*dA*dG*d[5mC]*dA*d[5mC]*dT*dT*dT*dT*eA*e[5mC]*kA*kT; antisense) [Compound 1198749] | 73 % UTC

Same assay, conditions: Table 41; SNU-449 cells, 10,000 cells per well, free uptake, 2,000 nM modified oligonucleotide, approximately 48 hours; RTS36584; normalized to RIBOGREEN; Yap1 mRNA relative to untreated control cells

Substance | YAP1 (% UTC)
1198634 (kT*kG*dG*dA*dA*dA*dT*dT*dG*dT*d[5mC]*dT*k[5mC]*eA*kT*eG; antisense) [Compound 1198634] | 34 % UTC
1198792 (antisense kT*eT*kT*dA*dA*dA*dG*dT*dG*dT*dA*dT*eG*eT*k[5mC]*kA) [Compound 1198792] | 48 % UTC
1198774 (kA*eA*k[5mC]*dT*d[5mC]*dT*dT*dA*dT*dA*dT*dG*eG*eT*kT*kT; antisense) [Compound 1198774] | 106 % UTC
1198636 (kA*kT*dA*dT*dG*dG*dA*dA*dA*dT*dT*dG*kT*e[5mC]*kT*e[5mC]; antisense) [Compound 1198636] | 41 % UTC
1198674 (antisense kA*kG*dA*dT*dT*dT*dA*dG*dG*dA*dT*dG*k[5mC]*eA*kT*eG) [Compound 1198674] | 21 % UTC

Same assay, conditions: Table 42 (separate experiment); SNU-449 cells, 10,000 cells per well, free uptake, 2,000 nM modified oligonucleotide, approximately 48 hours; RTS36584; normalized to RIBOGREEN; Yap1 mRNA relative to untreated control cells

Substance | YAP1 (% UTC)
1198701 (kT*kT*dA*dA*dA*dG*dT*dG*dT*dA*dT*dG*kT*e[5mC]*kA*eG; antisense) [Compound 1198701] | 46 % UTC
1198685 (antisense k[5mC]*kA*dA*d[5mC]*dT*d[5mC]*dT*dT*dA*dT*dA*dT*kG*eG*kT*eT) [Compound 1198685] | 70 % UTC
1198706 (kA*kG*dT*dA*dA*dG*dG*dT*dT*dT*d[5mC]*d[5mC]*k[5mC]*eA*kG*eA; antisense) [Compound 1198706] | 39 % UTC
1198683 (antisense kA*k[5mC]*dT*d[5mC]*dT*dT*dA*dT*dA*dT*dG*dG*kT*eT*kT*eT) [Compound 1198683] | 27 % UTC
1198703 (k[5mC]*kT*dT*dT*dA*dA*dA*dG*dT*dG*dT*dA*kT*eG*kT*e[5mC]; antisense) [Compound 1198703] | 42 % UTC

Same assay, conditions: Table 43 experiment; SNU-449 cells, 10,000 cells per well, free uptake, 2,000 nM, approximately 48 hours; RTS36584; Yap1 mRNA normalized to RIBOGREEN, relative to untreated control cells

Substance | YAP1 (% UTC)
1198264 (kT*kA*dT*dG*dT*dA*dA*dT*dA*dT*dT*eG*e[5mC]*eA*kA*kT; antisense) [Compound 1198264] | 73 % UTC
119825 4 (kA*kA*d[5mC]*dT*d[5mC]*dT*dT*dA*dT*dA*dT*eG*eG*eT*kT*kT; antisense) | 95 % UTC
1198241 (kT*kT*dT*dA*dG*dG*dA*dT*dG*d[5mC]*dA*eT*eG*eG*kT*kT; antisense) [Compound 1198241] | 32 % UTC
1198282 (kA*kG*dA*d[5mC]*dT*dA*dA*dG*dT*dA*dA*eG*eG*eT*kT*kT; antisense) [Compound 1198282] | 58 % UTC

Same assay, conditions: Table 44 experiment; SNU-449 cells, 10,000 cells per well, free uptake, 2,000 nM, approximately 48 hours; RTS36584; Yap1 mRNA normalized to RIBOGREEN, relative to untreated control cells

Substance | YAP1 (% UTC)
1198518 (kT*kA*dA*dT*dA*dT*dT*dG*d[5mC]*dA*dA*eT*k[5mC]*eT*kG*eT; antisense) [Compound 1198518] | 71 % UTC
1198521 (kA*kT*dG*dT*dA*dA*dT*dA*dT*dT*dG*e[5mC]*kA*eA*kT*e[5mC]; antisense) [Compound 1198521] | 44 % UTC
1198541 (antisense kT*kT*dA*dG*dA*d[5mC]*dT*dA*dA*dG*dT*eA*kA*eG*kG*eT) [Compound 1198541] | 34 % UTC

Same assay, conditions: Table 45; Yap1 mRNA as percent of untreated control, SNU-449 cells, single dose

Substance | YAP1 (% UTC)
1198962 (kT*kA*dA*dA*dG*dT*dG*dT*dA*dT*dG*kT*d[5mC]*kA*dG*kA; antisense) [Compound 1198962] | 52 % UTC
1095511 (antisense k[5mC]*kA*d[5mC]*dT*dG*dA*dG*dG*dT*dA*dT*kA*dA*k[5mC]*dT*kG) [Compound 1095511] | 46 % UTC
1198921 (kT*kT*dA*dA*dG*d[5mC]*dA*d[5mC]*dT*dT*dT*kT*dA*k[5mC]*dA*kT; antisense) [Compound 1198921] | 89 % UTC
1198946 (kA*kA*d[5mC]*dT*d[5mC]*dT*dT*dA*dT*dA*dT*kG*dG*kT*dT*kT; antisense) [Compound 1198946] | 72 % UTC

Same assay, conditions: Table 46; Yap1 mRNA as percent of untreated control, SNU-449 cells, single dose

Substance | YAP1 (% UT)
1198869 (kA*kT*dG*dT*dA*dA*dT*dA*dT*dT*dG*k[5mC]*eA*kA*eT*k[5mC]; antisense) [Compound 1198869] | 49 % UT
1095407 (antisense kA*k[5mC]*dT*dG*dA*dG*dG*dT*dA*dT*dA*kA*e[5mC]*kT*eG*kG) [Compound 1095407] | 54 % UT
1198883 (kA*kA*dG*dT*dA*dA*dG*dG*dT*dT*dT*k[5mC]*e[5mC]*k[5mC]*eA*kG; antisense) [Compound 1198883] | 47 % UT
1198884 (kT*kA*dA*dG*dT*dA*dA*dG*dG*dT*dT*kT*e[5mC]*k[5mC]*e[5mC]*kA; antisense) [Compound 1198884] | 28 % UT

Same assay, conditions: Table 48; Yap1 mRNA level relative to untreated control; modified oligonucleotides targeting SEQ ID NO.: 1 and 2

Substance | YAP1 (% UT)
1197200 (antisense kT*kT*kA*dT*dA*dT*dG*dG*dT*dT*dT*dT*dG*kT*kG*kT) [Compound 1197200] | 49 % UT
1198289 (kG*kG*kA*dA*dA*dT*dT*dG*dT*d[5mC]*dT*d[5mC]*kA*eT*kG*e[5mC]; antisense) [Compound 1198289] | 12 % UT

Same assay, conditions: Table 49; Yap1 mRNA level relative to untreated control; modified oligonucleotides targeting SEQ ID NO.: 1 and 2

Substance | YAP1 (% UT)
1198555 (antisense kA*kT*kT*dA*dG*dA*dG*dT*dA*dT*dG*dT*kG*kG*k[5mC]*eA) [Compound 1198555] | 11 % UT
1095566 (antisense CTGAGGTATAACTGGG; chemistry not fully specified) [Compound 1095566] | 47 % UT
1198566 (antisense kT*kT*kT*dT*dA*d[5mC]*dA*dT*dT*dA*dG*dG*kA*kA*k[5mC]*eA) [Compound 1198566] | 83 % UT

Same assay, conditions: Table 50; Yap1 mRNA remaining as percent of untreated control (UT), SNU-449 cells, single dose

Substance | YAP1 (% UT)
1198605 (antisense kG*kT*kA*dA*dT*dA*dT*dT*dG*d[5mC]*dA*dA*kT*k[5mC]*kT*eG) [Compound 1198605] | 7 % UT
1198595 (antisense kT*k[5mC]*kT*dT*dA*dT*dA*dT*dG*dG*dT*dT*kT*kT*kG*eT) [Compound 1198595] | 27 % UT

Same assay, conditions: Table 51; Yap1 mRNA remaining as percent of untreated control (UT), SNU-449 cells, single dose

Substance | YAP1 (% UT)
1200797 (kA*kT*kT*dA*dG*mA*dG*dT*dA*dT*dG*dT*dG*kG*k[5mC]*kA; antisense) [Compound 1200797] | 11 % UT
1197241 (antisense kA*k[5mC]*kT*dG*mA*dG*dG*dT*dA*dT*dA*dA*d[5mC]*kT*kG*kG) [Compound 1197241] | 19 % UT

Same assay, conditions: Table 52; Yap1 mRNA, modified oligonucleotides targeting SEQ ID NO: 1 and 2

Substance | YAP1 (% UT)
1200844 (kA*kA*k[5mC]*dT*d[5mC]*mU*dT*dA*dT*dA*dT*dG*dG*kT*kT*kT; antisense) [Compound 1200844] | 132 % UT
1200838 (kA*kT*kA*dT*dG*mG*dT*dT*dT*dT*dG*dT*dG*kT*kG*kT; antisense) [Compound 1200838] | 65 % UT
1200867 (kA*kA*kG*dT*dA*mA*dG*dG*dT*dT*dT*d[5mC]*d[5mC]*k[5mC]*kA*kG; antisense) [Compound 1200867] | 38 % UT
1200859 (kA*kA*kA*dG*dT*mG*dT*dA*dT*dG*dT*d[5mC]*dA*kG*kA*kA; antisense) [Compound 1200859] | 28 % UT
1200805 (kG*kA*kG*dG*dT*mA*dT*dA*dA*d[5mC]*dT*dG*dG*kG*k[5mC]*kA; antisense) [Compound 1200805] | 50 % UT

Same assay, conditions: Yap1 mRNA, percent of untreated control; modified oligonucleotides targeting SEQ ID NO: 1 and 2; Table 47

Substance | YAP1 (% UT)
1074799 (kT*kG*k[5mC]*dT*dT*dT*dG*dG*dA*dA*dG*dA*dT*k[5mC]*kT*kG) [Compound 1074799] | 21 % UT
1197227 (antisense kT*kT*kA*dG*dA*d[5mC]*dT*dA*dA*dG*dT*dA*dA*kG*kG*kT) [Compound 1197227] | 64 % UT
1197223 (antisense kT*kA*kA*dG*dT*dA*dA*dG*dG*dT*dT*dT*d[5mC]*k[5mC]*k[5mC]*kA) [Compound 1197223] | 11 % UT
1197196 (antisense k[5mC]*kA*kG*dA*dT*dT*dT*dA*dG*dG*dA*dT*dG*k[5mC]*kA*kT) [Compound 1197196] | 27 % UT
1197210 (antisense kA*kT*kG*dT*dA*dA*dT*dA*dT*dT*dG*d[5mC]*dA*kA*kT*k[5mC]) [Compound 1197210] | 105 % UT
